Data taken from the supplement of paper PMC10307832.

Assays:
Test in all cases: relative viability (nuclei count vs DMSO), 5 days (fraction); higher = more cells survive
Carboplatin + Tozasertib = compound: C1CC(C1)(C(=O)O)C(=O)O.[NH2-].[NH2-].[Pt+2] [Carboplatin] + Cc1cc(Nc2cc(N3CCN(C)CC3)nc(Sc3ccc(NC(=O)C4CC4)cc3)n2)n[nH]1 [Tozasertib] (partner 0.1 µM)
In short: (§1)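 Relative viability divides the nuclei count in treated wells by that in vehicle wells. Lung cancer cell lines were seeded in 1536-well plates, dosed by pin tool the next day, and fixed and stained after 5 days in one step with final 0.05% Triton X-100, 1% formaldehyde and 1 ug/ml Hoechst. Dosing was a single drug or a fixed anchor-drug dose plus five library-drug doses (not always all listed) in √10 steps, and values are medians of duplicate plates imaged at 4×.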

GSK126 + OSI-027 = compound: CC[C@H](C)N1C=C(C2=C(C=C(C=C21)C3=CN=C(C=C3)N4CCNCC4)C(=O)NCC5=C(C=C(NC5=O)C)C)C [GSK126] + COc1cccc2cc(-c3nc([C@H]4CC[C@H](C(=O)O)CC4)n4ncnc(N)c34)[nH]c12 [OSI-027] (partner 0.5 µM)
In short: as §1

MLN4924 + Pictilisib = compound: NS(=O)(=O)OC[C@@H]1C[C@@H](n2ccc3c(N[C@H]4CCc5ccccc54)ncnc32)C[C@@H]1O [MLN4924] + CS(=O)(=O)N1CCN(Cc2cc3nc(-c4cccc5[nH]ncc45)nc(N4CCOCC4)c3s2)CC1 [Pictilisib] (partner 1 µM)
In short: as §1

MLN4924 + Vorinostat = compound: NS(=O)(=O)OC[C@@H]1C[C@@H](n2ccc3c(N[C@H]4CCc5ccccc54)ncnc32)C[C@@H]1O [MLN4924] + O=C(CCCCCCC(=O)Nc1ccccc1)NO [Vorinostat] (partner 1 µM)
In short: as §1

Row | Cell Line | relative viability (Carboplatin + Tozasertib; first compound 0.08 µM) | relative viability (Carboplatin + Tozasertib; first compound 0.253 µM) | relative viability (Carboplatin + Tozasertib; first compound 0.8 µM) | relative viability (Carboplatin + Tozasertib; first compound 2.53 µM) | relative viability (Carboplatin + Tozasertib; first compound 8 µM) | relative viability (GSK126 + OSI-027; first compound 0.08 µM) | relative viability (GSK126 + OSI-027; first compound 0.253 µM) | relative viability (GSK126 + OSI-027; first compound 0.8 µM) | relative viability (GSK126 + OSI-027; first compound 2.53 µM) | relative viability (GSK126 + OSI-027; first compound 8 µM) | relative viability (MLN4924 + Pictilisib; first compound 0.04 µM) | relative viability (MLN4924 + Pictilisib; first compound 0.1265 µM) | relative viability (MLN4924 + Pictilisib; first compound 0.4 µM) | relative viability (MLN4924 + Pictilisib; first compound 1.265 µM) | relative viability (MLN4924 + Pictilisib; first compound 4 µM) | relative viability (MLN4924 + Vorinostat; first compound 0.04 µM) | relative viability (MLN4924 + Vorinostat; first compound 0.1265 µM) | relative viability (MLN4924 + Vorinostat; first compound 0.4 µM) | relative viability (MLN4924 + Vorinostat; first compound 1.265 µM) | relative viability (MLN4924 + Vorinostat; first compound 4 µM)
1 | HCC-78 | 0.413 | 0.335 | 0.431 | 0.483 | 0.465 | 0.359 | 0.379 | 0.384 | 0.373 | 0.396 | 0.272 | 0.187 | 0.14 | 0.138 | 0.139 | 0.442 | 0.309 | 0.5 | 0.245 | 0.225
2 | HCC-366 | 0.13 | 0.139 | 0.111 | 0.1 | 0.0814 | 1.2 | 0.754 | 0.868 | 0.927 | 0.847 | 0.232 | 0.496 | 0.326 | 0.102 | 0.0407 | 0.327 | 0.348 | 0.322 | 0.0422 | 0.0392
3 | HCC-827 | 0.441 | 0.414 | 0.413 | 0.418 | 0.397 | 0.803 | 0.83 | 0.768 | 0.768 | 0.776 | 1.12 | 0.641 | 0.808 | 0.382 | 0.311 | 0.805 | 0.716 | 0.636 | 0.242 | 0.215
4 | HOP-62 | 0.377 | 0.387 | 0.378 | 0.378 | 0.368 | 0.888 | 0.845 | 0.869 | 0.867 | 0.798 | 0.521 | 0.428 | 0.0949 | 0.0537 | 0.103 | 0.395 | 0.378 | 0.116 | 0.0547 | 0.0779
5 | IA-LM |  |  |  |  |  |  |  |  |  |  | 0.342 | 0.145 | 0.0958 | 0.0574 | 0.0645 | 0.653 | 0.194 | 0.17 | 0.0544 | 0.0516
6 | LC-2-ad | 0.482 | 0.433 | 0.496 | 0.372 | 0.374 | 1.02 | 0.868 | 0.902 | 0.862 | 0.985 | 0.122 | 0.427 | 0.39 | 0.143 | 0.116 | 0.612 | 0.63 | 0.508 | 0.214 | 0.202
7 | LCLC-97TM1 | 0.235 | 0.292 | 0.249 | 0.192 | 0.212 | 0.503 | 0.421 | 0.546 | 0.606 | 0.635 | 0.159 | 0.224 | 0.132 | 0.129 | 0.104 | 0.742 | 0.503 | 0.0752 | 0.0454 | 0.0589
8 | LCLC-103H | 0.517 | 0.466 | 0.439 | 0.532 | 0.473 | 0.514 | 0.453 | 0.533 | 0.435 | 0.456 | 0.757 | 0.697 | 0.788 | 0.238 | 0.233 | 0.763 | 0.771 | 0.372 | 0.252 | 0.282
9 | LK-2 | 0.16 | 0.168 | 0.184 | 0.163 | 0.137 | 0.168 | 0.245 | 0.212 | 0.282 | 0.303 | 0.511 | 0.503 | 0.566 | 0.254 | 0.262 | 0.271 | 0.277 | 0.227 | 0.509 | 0.198
10 | LOU-NH91 | 0.727 | 0.807 | 0.671 | 0.63 | 0.637 | 0.728 | 0.735 | 0.751 | 0.681 | 0.787 | 0.53 | 0.574 | 0.515 | 0.393 | 0.434 | 0.581 | 0.938 | 0.661 | 0.475 | 0.506
11 | LU99A | 0.282 | 0.279 | 0.248 | 0.258 | 0.212 | 0.341 | 0.324 | 0.275 | 0.311 | 0.296 | 0.334 | 0.299 | 0.226 | 0.153 | 0.137 | 0.514 | 0.381 | 0.3 | 0.119 | 0.106
12 | NCI-H522 | 0.63 | 0.604 | 0.547 | 0.525 | 0.528 | 0.651 | 0.731 | 0.779 | 0.638 | 0.686 |  |  |  |  |  | 0.704 | 0.726 | 0.567 | 0.344 | 0.378
13 | NCI-H1299 |  |  |  |  |  |  |  |  |  |  | 0.378 | 0.398 | 0.153 | 0.0571 | 0.0769 |  |  |  |  | 
14 | NCI-H1563 |  |  |  |  |  | 0.789 | 0.785 | 0.863 | 0.803 | 0.753 | 0.802 | 0.646 | 0.581 | 0.535 | 0.586 |  |  |  |  | 
15 | NCI-H1623 | 0.445 | 0.446 | 0.484 | 0.449 | 0.402 | 0.414 | 0.473 | 0.425 | 0.504 | 0.401 |  |  |  |  |  |  |  |  |  | 
16 | NCI-H1648 | 0.708 | 0.421 | 0.319 |  | 0.456 | 0.248 |  | 0.265 | 0.242 | 0.252 |  |  |  |  |  | 0.249 | 0.296 | 0.276 | 0.224 | 0.309
17 | NCI-H1703 |  |  |  |  |  |  |  |  |  |  | 0.181 | 0.162 | 0.165 | 0.155 | 0.174 |  |  |  |  | 
18 | NCI-H1792 |  |  |  |  |  | 0.643 | 0.796 | 0.679 | 0.786 | 0.675 | 0.375 | 0.387 | 0.34 | 0.147 | 0.122 |  |  |  |  | 
19 | NCI-H2342 | 0.555 | 0.529 | 0.502 | 0.406 | 0.547 | 0.678 | 0.616 | 0.622 | 0.626 | 0.669 |  |  |  |  |  | 0.809 | 0.814 | 0.837 | 0.873 | 0.625
20 | SW 900 | 0.682 | 0.479 | 0.56 | 0.399 | 0.314 | 0.605 | 0.505 | 0.502 | 0.473 | 0.466 |  |  |  |  |  |  | 0.414 | 0.182 | 0.175 | 0.208
